Consider 1 molecule from PMC12190640 (2025).

The test system of this experiment is 37Cy3-74Cy5-riboSAM (RNA, riboswitch, Cy3-modified U at 37, Cy5-modified U at 74) GGGAAGAAAUAACAAUCAACGACGUAUCAUUGUGCCUCGCUUUCCGCGGGGCGAUAAGUCCUGAAGAAAGGGAUGAUAUGACAUAAGAACAUCGG
Briefly: smFRET (TIRF). The conditions noted are these: 50 mM Na+, 10 mM Tris-HCl pH 8.0, 25 °C, 0.5 mM SAM.

Consider `C[S+](CC[C@H](N)C(=O)O)C[C@H]1O[C@@H](n2cnc3c(N)ncnc32)[C@H](O)[C@@H]1O` (some centres unmarked), for which the binding entry is given as “yes” (2 mM Mg2+, stable EFRET ~0.8 population 18.5% to 37.6%) and “weak” (no Mg2+, no significant structural transition, same at 0.05 mM Mg2+).
